This passage reports inhibition results from ChEMBL document CHEMBL2073768, “Effects of xanthine derivatives on the influx and efflux of doxorubicin in P388 and DOX-resistant P388 leukemia cells” (Toxicol Lett, 2002).

In the data set the target is ATP-dependent translocase ABCB1 (P-glycoprotein) (Mus musculus, UniProt P21447). As to the kind of experiment: TP_TRANSPORTER: inhibition of DOX efflux (DOX: 18? uM, XT-141: 100 uM) in P388/DOX cells. Format: functional, cell-based. The note with it: probe DOX (doxorubicin), read-out: Activity.
Chain of ATP-dependent translocase ABCB1 (P-glycoprotein) (P21447 whole entry): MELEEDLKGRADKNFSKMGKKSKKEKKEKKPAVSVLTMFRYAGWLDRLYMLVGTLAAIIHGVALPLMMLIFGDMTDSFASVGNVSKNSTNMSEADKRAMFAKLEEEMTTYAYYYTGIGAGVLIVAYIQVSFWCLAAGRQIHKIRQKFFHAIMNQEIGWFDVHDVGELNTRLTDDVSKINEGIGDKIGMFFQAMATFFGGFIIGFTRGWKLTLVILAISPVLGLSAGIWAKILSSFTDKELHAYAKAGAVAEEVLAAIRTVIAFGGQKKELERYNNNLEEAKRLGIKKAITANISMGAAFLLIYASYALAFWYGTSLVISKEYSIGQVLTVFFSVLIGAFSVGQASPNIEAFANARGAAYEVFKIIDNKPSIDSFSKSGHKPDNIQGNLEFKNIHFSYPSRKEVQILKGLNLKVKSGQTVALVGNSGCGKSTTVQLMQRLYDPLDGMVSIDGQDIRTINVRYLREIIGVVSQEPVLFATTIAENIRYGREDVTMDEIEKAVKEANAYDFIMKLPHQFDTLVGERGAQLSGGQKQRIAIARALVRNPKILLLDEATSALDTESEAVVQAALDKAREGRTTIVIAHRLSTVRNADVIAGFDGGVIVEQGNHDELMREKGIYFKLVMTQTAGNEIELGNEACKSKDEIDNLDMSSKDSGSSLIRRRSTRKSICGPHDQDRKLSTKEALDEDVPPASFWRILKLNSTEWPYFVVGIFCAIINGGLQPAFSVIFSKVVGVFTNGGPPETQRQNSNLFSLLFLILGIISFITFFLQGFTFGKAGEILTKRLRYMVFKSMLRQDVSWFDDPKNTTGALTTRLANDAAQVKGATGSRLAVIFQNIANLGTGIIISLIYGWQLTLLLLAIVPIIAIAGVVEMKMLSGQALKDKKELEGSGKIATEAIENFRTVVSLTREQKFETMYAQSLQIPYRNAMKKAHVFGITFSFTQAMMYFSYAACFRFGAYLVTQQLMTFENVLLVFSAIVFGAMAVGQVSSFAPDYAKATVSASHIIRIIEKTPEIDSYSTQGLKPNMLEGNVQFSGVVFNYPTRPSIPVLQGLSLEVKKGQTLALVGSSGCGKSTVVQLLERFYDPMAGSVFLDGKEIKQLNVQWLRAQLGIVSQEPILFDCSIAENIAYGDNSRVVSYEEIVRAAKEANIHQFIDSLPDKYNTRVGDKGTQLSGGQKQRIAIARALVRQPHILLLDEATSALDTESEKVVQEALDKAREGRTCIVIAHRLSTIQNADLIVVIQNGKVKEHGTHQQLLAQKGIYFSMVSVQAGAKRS

As to `CCCn1c(=O)n(C)c(=O)c2c1ncn2CCCN(C)C`, the inhibition at 100 µM was 43%.
